Values of other authors as cited in patent US7098029B1, “Product and method for control of obesity” (Metabolic Pharmaceuticals Limited, priority 1999, dated 2006).

Test system: C57B1/6J (Ob/Ob) mouse
Conditions: administration by injection; cited from earlier work

Which results are given for “hGH 177–191: synthetic peptide corresponding to amino acid residues 177–191 of the human growth hormone sequence (LRIVQCRSVEGSCGF)”?
adipose tissue mass: reduce body weight gain and adipose tissue mass; body weight gain: reduce body weight gain
